# Reference: patent US20070275382A1, “Biomarkers for the Efficacy of Somatostatin Analogue Treatment” (priority 2003, published 2007)
# *1 amine or outer side, *2 acyl side, *3 side chain or, on linkers, in order; H or OH if unused. Where a SMILES comes first, the peptide text is derived from it. Side-chain parts run from the residue outwards. [ ]: non-standard residue; d: D form. The star is where a group is joined. Ethylenediamine = C(CN[*:2])N[*:1]; Hyp = O=C(O)[CH]1C[CH](O)CN1; Phg = N[CH](C(=O)O)c1ccccc1; CO = O=C([*:1])[*:2]; Bn = c1ccc(C*)cc1
# System: Pituitary gland
# Test: Microarray gene expression profiling (HG-U95A), pituitary
# Assay type: in vivo, cynomolgus monkeys
# Conditions: 100 μg/animal/day s.c., 14 days
# Description: Origin of tissue and processing. Male and female cynomolgus monkeys received subcutaneously pasireotide (100 μg/animal/day) or the vehicle for 14 days. On day 15, all animals were sacrificed and tissues for RNA extraction were immediately snap-frozen and kept at −80° C. until processing.
# RNA expression profiling was conducted by means of the HG-U95A gene expression probe array (Affymetrix; Santa Clara, Calif. USA), containing more than 12,600 probe sets interrogating primarily full-length human genes and also some control probe sets. The experiment was conducted according to the recommendations of the manufacturer. Briefly, total RNA was obtained by acid guanidinium thiocyanate-phenol-chloroform extraction (Trizol®, Invitrogen Life Technologies, San Diego, Calif. USA) from each frozen tissue section. The total RNA was then purified on an affinity resin (Rneasy®, Qiagen) and quantified. Double stranded cDNA was synthesized with a starting amount of approximately 5 μg full-length total RNA using the Superscript® Choice System (Invitrogen Life Technologies, Carlsbad, Calif. USA) in the presence of a T7-(dT)24 DNA oligonucleotide primer. Following synthesis, the cDNA was purified by phenol/chloroform/isoamyl alcohol extraction and ethanol precipitation. The purified cDNA was then transcribed in vitro using the BioArray® High Yield RNA Transcript Labeling Kit (ENZO, Farmingdale, N.Y. USA) in the presence of biotinylated ribonucleotides form biotin labelled cRNA. The labelled cRNA was then purified on an affinity resin (Rneasy®, Qiagen), quantified and fragmented. An amount of approximately 10 μg labelled cRNA was hybridized for 16 hours at 45° C. to an expression probe array. The array was then washed and stained twice with streptavidin-phycoerythrin (Molecular Probes,) using the GeneChip® Fluidics Workstation 400 (Affymetrix, Santa Clara, Calif. USA). The array was then scanned twice using a confocal laser scanner (GeneArray® Scanner, Agilent, Palo Alto, Calif. USA) resulting in one scanned image. This resulting “.dat-file” was processed using the MAS4 program (Affymetrix) into a “.cel-file”. The “.cel file” was captured and loaded into the Affymetrix GeneChip® Laboratory Information Management System (LIMS). The LIMS database is connected to a UNIX Sun Solaris server through a network filing system that allows for the average intensities for all probes cells (CEL file) to be downloaded into an Oracle database (NPGN). Raw data was converted to expression levels using a “target intensity” of 150. The data were evaluated for quality control and loaded in the GeneSpring® software 4.2.4 (Silicon Genetics, Calif. USA) for analysis.
# On the human Affymetrix HGU95Av2 chip, probe sets for individual genes contain 20 oligonucleotide pairs, each composed of a “perfect match” 25-mer and a “mismatch” 25-mer differing from the “perfect” match oligonucleotide at a single base. After probe labelling, hybridization, and laser scanning, the expression level was estimated by averaging the differences in signal intensity measured by oligonucleotide pairs of a given probe (AvgDiff value). The fold changes and directions were calculated for selected genes, from the differences of the AvgDiff values between controls and treated.
# To identify genes that were impacted by pasireotide, the dataset was initially filtered to exclude in a first wave of analysis, genes whose values were systematically in the lower expression ranges where the experimental noise is high (at least 80 in a number of experiments corresponding to the smallest number of replicas of any experimental point). In a second round of selection a threshold p-value of 0.05 (based on a t-test) identified differences between treated and control based on a two component error model (Global Error Model) and, whenever possible, with a stepdown correction for multi-hypothesis testing (Benjamini and Hochberg false discovery rate). […]
compound,measurement,setting,value
"NCCCCC1NC(=O)C(Cc2c[nH]c3ccccc23)NC(=O)C(c2ccccc2)NC(=O)C2CC(OC(=O)NCCN)CN2C(=O)C(Cc2ccccc2)NC(=O)C(Cc2ccc(OCc3ccccc3)cc2)NC1=O (stereo not drawn) [Pasireotide, cyclo[4-(NH2—C2H4—NH—CO—O)Pro-Phg-DTrp-Lys-Tyr(4-Bzl)-Phe]] (cyclo(F[Hyp]([CO-Ethylenediamine])[Phg]WKY(Bn)); configuration not given here)",GFR bound protein 10 transcript fold change,↑ vs control,↑ x1.5
same,"GLUR 2, precursor transcript fold change",↑ vs control,↑ x1.5
same,GTP-binding protein 11 transcript fold change,↑ vs control,11 ↑ x2.5
same,Glucagon receptor transcript fold change,↑ vs control,↑ x7
same,IFN stimulated gene transcript fold change,↑ vs control,↑ x3.5
same,IFNγ-inducible protein 30 (IP30) transcript fold change,↑ vs control,30 (IP30) ↑ x1.5
same,"IGFBP, acid labile subunit transcript fold change",↑ vs control,subunit ↑ x3.5
same,"IP3 receptor, type 1 transcript fold change",↑ vs control,↑ x1.5
same,JAK 1 transcript fold change,↑ vs control,JAK 1 ↑ x2
same,MAPKKK5 transcript fold change,↑ vs control,MAPKKK5 ↑ x2
same,Neuroblastoma-amplified protein transcript fold change,↑ vs control,↑ x1.5
same,PKC inhibitor transcript fold change,↑ vs control,PKC inhibitor ↑ x2
same,"PP 1, regulatory (inhibitor) subunit 5 transcript fold change",↑ vs control,↑ x3.5
same,"PTP, receptor type, T transcript fold change",↑ vs control,↑ x2
same,Programmed cell death 6 transcript fold change,↑ vs control,death 6 ↑ x1.5
same,Putative Ca++ transporting ATPase transcript fold change,↑ vs control,↑ x2
same,"RAB 5C, member RAS oncogene family transcript fold change",↑ vs control,↑ x3
same,"Rab geranyltransferase, β subunit transcript fold change",↑ vs control,β subunit ↑ x2
same,Receptor (calcitonin) activity modifying protein 2 precursor transcript fold change,↑ vs control,x3.5
same,Receptor tyrosine kinase-like orphan receptor 2 transcript fold change,↑ vs control,receptor 2 ↑ x2
same,Regulator of G-protein signalling 9 transcript fold change,↑ vs control,↑ x2
same,S-phase response (cyclin-related) transcript fold change,↑ vs control,(cyclin-related) ↑ x2
same,SSTR3 transcript fold change,↑ vs control,SSTR3 ↑ x3
same,Thyroid transcription factor 1 transcript fold change,↑ vs control,factor 1 ↑ x2.5
same,VEGF B transcript fold change,↑ vs control,VEGF B ↑ x1.5
same,1-PI-4-phosphate 5-kinase isoform C transcript fold change,↓ vs control,kinase isoform C ↓ x1.5
same,"ATPase, H+/K+ exchanging, α polypeptide transcript fold change",↓ vs control,polypeptide ↓ x5
same,Arg PTK-binding protein transcript fold change,↓ vs control,protein ↓ x2.5
same,CD36 antigen transcript fold change,↓ vs control,CD36 antigen ↓ x2
same,"Catenin (cadherin-associated protein), α 1 (102 kD) transcript fold change",↓ vs control,α 1 (102 kD) ↓ x1.5
same,Cholecystokinin receptor transcript fold change,↓ vs control,receptor ↓ x4.5
same,"Cholinergic receptor, muscarinic 3 transcript fold change",↓ vs control,muscarinic 3 ↓ x3
same,"Cholinergic receptor, nicotinic, β polypeptide 4 transcript fold change",↓ vs control,4 ↓ x2
same,Cyclin F transcript fold change,↓ vs control,Cyclin F ↓ x2
same,Dual specificity phosphatase 8 transcript fold change,↓ vs control,phosphatase 8 ↓ x3
same,EGFRBP 2 transcript fold change,↓ vs control,EGFRBP 2 ↓ x1.5
same,FGFR 2 transcript fold change,↓ vs control,FGFR 2 ↓ x2
same,Fms-related tyrosine kinase 1 (VEGF/vascular permeability factor receptor) transcript fold change,↓ vs control,receptor) ↓ x1.5
same,Forkhead box O3A transcript fold change,↓ vs control,↓ x1.5
same,G-protein coupled receptor 49 transcript fold change,↓ vs control,receptor 49 ↓ x2
same,"GTP-binding protein (G protein), q polypeptide transcript fold change",↓ vs control,↓ x2.5
same,GTP-binding protein like-1 transcript fold change,↓ vs control,like-1 ↓ x3
same,Gastrin receptor transcript fold change,↓ vs control,Gastrin receptor ↓ x2
same,"IFNR2 (α, β and ω) transcript fold change",↓ vs control,↓ x2.5
same,IGF-2 transcript fold change,↓ vs control,IGF-2 ↓ x1.5
same,"IP-4-phosphatase, type 1, isoform b transcript fold change",↓ vs control,"type 1, isoform b ↓ x2"
same,"K+ channel, subfamily K, member 3 (TASK) transcript fold change",↓ vs control,↓ x4
same,"K+ voltage-gated channel, Shab-related subfamily, member 1 transcript fold change",↓ vs control,↓ x2
same,PDGFβ transcript fold change,↓ vs control,PDGFβ ↓ x2
same,"PI transfer protein, β transcript fold change",↓ vs control,↓ x2.5
same,"PI-3-kinase, catalytic, α polypeptide transcript fold change",↓ vs control,α polypeptide ↓ x3
same,"PI-3-kinase, catalytic, δ polypeptide transcript fold change",↓ vs control,↓ x2
same,PLCγ 1 transcript fold change,↓ vs control,PLCγ 1 ↓ x1.5
same,Phosphatase and tensin homolog (mutated in multiple advanced cancers 1) transcript fold change,↓ vs control,↓ x3.5
same,"Rab3 GTPase-activating protein, non catalytic subunit transcript fold change",↓ vs control,catalytic subunit ↓ x2
same,"Rab geranylgeranyl transferase, α subunit transcript fold change",↓ vs control,↓ x1.5
same,SHB adaptor protein (a Src homology 2 protein) transcript fold change,↓ vs control,↓ x2.5
same,"STAT 1, 91kδ transcript fold change",↓ vs control,"STAT 1, 91kδ ↓ x2"
same,Soluble adenylyl cyclase transcript fold change,↓ vs control,cyclase ↓ x2
same,"TNFR subfamily, member 14; herpesvirus entry mediator transcript fold change",↓ vs control,entry mediator ↓ x2.5
same,TNFR-associated factor 2 transcript fold change,↓ vs control,factor 2 ↓ x4
same,Thrombospondin-p50 transcript fold change,↓ vs control,↓ x2
